According to patent US10617682B2 (ROSEMAN UNIVERSITY OF HEALTH SCIENCES, priority 2017, dated 2020):

Key:
[1] = HPLC potency of freshly prepared solution against USP standard prochlorperazine maleate; assay type: physicochemical
Description: The mobile phase consisted of the ion-pairing solution, acetonitrile, and methanol (50:40:10). The ion pairing solution was previously prepared by dissolving 4.33 g of sodium-1-octanesulfonic acid and 4.0 mL glacial acetic acid in 1000 mL of water. The chromatographic separation was achieved using a 3.9 mm×15 cm L1 (C18) column with 5 μm particle size. The flow-rate was 1.5 mL per minute and detection wavelength was 254 nm. The HPLC analysis was carried out by injecting 20 μL of sample into the Waters Alliance HPLC with Waters photodiode array (PDA) detector. Data acquisition and analysis was performed using WATERS® EMPOWER 3 software. The HPLC method was validated according to International Council on Harmonization (ICH) guidelines for various parameters including: linearity, accuracy and precision, robustness, and ruggedness.

[2] = oral route; cited from earlier work
[3] = Forced degradation studies by HPLC; assay type: physicochemical; details: 0.1 mg/mL
Description: The specificity of the HPLC method to degradation products was also assessed by subjecting prochlorperazine to various forced degradation conditions such as hydrolysis, oxidation, photodegradation, thermal degradation and UV irradiation.
The HPLC method used in this study was able to resolve prochlorperazine sulfoxide distinctly from prochlorperazine edisylate and trifluoperazine. […] Furthermore, forced degradation studies were also performed to assess any other degradation pathways that may interfere with prochlorperazine assay.

Row | Structure (SMILES) | potency compared with USP standard prochlorperazine maleate [1] [%] | absorption [2] | degradation under acid hydrolysis ([3]; 0.1 M hydrochloric acid 1 hour) | degradation under oxidation ([3]; 0.1 M hydrogen peroxide overnight) | degradation under base hydrolysis ([3]; 0.1 M sodium hydroxide 1 hour) | degradation under thermal degradation ([3]; 60° C. overnight) | degradation under photodegradation ([3]; laboratory light overnight) | degradation under UV irradiation ([3]; ultraviolet radiation overnight)
1 | CN1CCN(CCCN2c3ccccc3Sc3ccc(Cl)cc32)CC1 [prochlorperazine edisylate] | 99.7±2.3 | – | – | – | – | – | – | –
2 | CN1CCN(CCCN2c3ccccc3Sc3ccc(Cl)cc32)CC1 [prochlorperazine, 2-chloro-10-[3-(4-methylpiperazin-1-yl)propyl]phenothiazine] | – | low and variable absorption | did not show prochlorperazine degradation | showed degradation | did not show prochlorperazine degradation | did not show prochlorperazine degradation | did not show prochlorperazine degradation | showed degradation
